In US20120115852A1, “HETEROCYCLIC COMPOUNDS AS AUTOTAXIN INHIBITORS” (Merck Patent Gesellschaft Mit Beschrankter Haftung, priority 2009, published 2012):

Target: T1, recombinant autotaxin (Homo sapiens, UniProt Q13822)
T1 construct: made in house; host or cells: Hi5 insect cells (baculovirus)
Experiment: Autotaxin test (enzyme test), Amplex Red fluorescence with LPC substrate
Assay type: biochemical
Conditions: autotaxin inhibition (enzyme test); for remaining activity at 10 µM: 10 μM compound, read-out: % Control at 10 μM
Outline: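 Activity was inferred from H2O2 made from released choline, detected as Amplex Red/peroxidase fluorescence (485 nm excitation, 612 nm emission, kinetic read). Beforehand, Hi5-expressed autotaxin sat with compound 30 min at 22° C, then hydrolysed 75 μM final LPC for 90 min at 37° C, pH 8 Tris buffer.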

O=C1Nc2ccc(-c3ccc(Cl)cc3)cc2C(=O)N2CCN(C(=O)c3cscn3)CC12 (centres unmarked) [Compound A36, 7-(4-Chlorophenyl)-2-(thiazole-4-carbonyl)-1,3,4,11a-tetrahydro-2H,10H-2,4a,10-triaza-dibenzo[a,d]cycloheptene-5,11-dione]
IC50: 0.1 to 1 µM

CC(C)[C@H](N)C(=O)N1CCN2C(=O)c3cc(-c4ccc(Cl)cc4F)ccc3NC(=O)[C@H]2C1 [Compound A63, (R)-2-((S)-2-Amino-3-methylbutyryl)-7-(4-chloro-2-fluorophenyl)-1,3,4,11a-tetrahydro-2H,10H-2,4a,10-triazadibenzo[a,d]cycloheptene-5,11-dione]
remaining activity at 10 µM: 67%
IC50: > 1 µM

CN(C)c1ccc(C(=O)N2CCN3C(=O)c4cc(-c5ccc(Cl)cc5)ccc4NC(=O)[C@H]3C2)cc1 [Compound A9, (R)-7-(4-Chlorophenyl)-2-(4-dimethylamino-benzoyl)-1,3,4,11a-tetrahydro-2H,10H-2,4a,10-triazadibenzo[a,d]cycloheptene-5,11-dione]
remaining activity at 10 µM: 84%

O=C1Nc2ccc(-c3ccco3)cc2C(=O)N2CCN(C(=O)C3CC3)C[C@H]12 [Compound B16]
remaining activity at 10 µM: 82%

COc1ccc(-c2ccc3c(c2)C(=O)N2CCN(C(=O)[C@@H](O)c4ccccc4)C[C@@H]2C(=O)N3)cc1 [Compound B2]
remaining activity at 10 µM: 84%

O=C([C@@H]1CCCN1C1CCNCC1)N1CCN2C(=O)c3cc(-c4ccc(Cl)cc4F)ccc3N(CCO)C(=O)[C@H]2C1 [Compound A159]
remaining activity at 10 µM: 16%
IC50: > 1 µM

O=C1Nc2ccc(-c3ccccc3)cc2C(=O)N2CCN(C(=O)C3CCCC3)C[C@@H]12 [Compound B6]
remaining activity at 10 µM: 85%

CC(C)(C)CC(=O)N1CCN2C(=O)c3cc(-c4ccc(Cl)cc4F)ccc3NC(=O)[C@@H]2C1 [Compound A125, (S)-7-(4-Chloro-2-fluorophenyl)-2-(3,3-dimethyl-butyryl)-1,3,4,11a-tetrahydro-2H,10H-2,4a,10-triazadibenzo[a,d]cycloheptene-5,11-dione]
remaining activity at 10 µM: 25%
IC50: > 1 µM

O=C1Nc2ccc(-c3ccc(Cl)cc3F)cc2C(=O)N2CCN(C(=O)[C@@H]3CCCN3C3CCCCC3)C[C@H]12 [Compound A121, (R)-7-(4-Chloro-2-fluorophenyl)-2-((S)-1-cyclohexyl-pyrrolidine-2-carbonyl)-1,3,4,11a-tetrahydro-2H,10H-2,4a,10-triazadibenzo[a,d]cycloheptene-5,11-dione]
remaining activity at 10 µM: 32%
IC50: > 1 µM

CC(C)(C)[C@H](O)C(=O)N1CCN2C(=O)c3cc(-c4ccc(Cl)cc4F)ccc3NC(=O)[C@@H]2C1 [Compound A64, (S)-7-(4-Chloro-2-fluorophenyl)-2-((S)-2-hydroxy-3,3-dimethylbutyryl)-1,3,4,11a-tetrahydro-2H,10H-2,4a,10-triazadibenzo[a,d]cycloheptene-5,11-dione]
remaining activity at 10 µM: 31%
IC50: > 1 µM

CC(C)(C)CC(=O)N1CCN2Cc3cc(-c4ccccc4F)ccc3NC(=O)C2C1 (centres unmarked) [Compound 26, 2-(3,3-dimethylbutyryl)-7-(2-fluorophenyl)-1,3,4,5,10,11a-hexahydro-2H-2,4-a,10-triazadibenzo[a,d]cyclohepten-11-one]
remaining activity at 10 µM: 73%
IC50: > 1 µM

O=C1Nc2ccc(-c3ccc(Cl)cc3)cc2CN2CCN(C(=O)[C@@H]3CCCN3C3CCNCC3)CC12 (some centres unmarked) [Compound A176]
remaining activity at 10 µM: 63%
IC50: > 1 µM

CC(C)(C)CC(=O)N1CCN2C(=O)c3cc(-c4ccccc4F)ccc3NC(=O)[C@@H]2C1 [Compound A17, (S)-2-(3,3-Dimethylbutyryl)-7-(2-fluorophenyl)-1,3,4,11a-tetrahydro-2H,10H-2,4a,10-triaza-dibenzo[a,d]cycloheptene-5,11-dione]
IC50: 0.1 to 1 µM

O=C1Nc2ccc(-c3ccc(Cl)cc3F)cc2C(=O)N2CCN(C(=O)[C@H]3CCCN3C3CCNCC3)CC12 (stereo partly drawn) [Compound A93, 7-(4-Chloro-2-fluorophenyl)-2-((R)-1-piperidin-4-ylpyrrolidine-2-carbonyl)-1,3,4,11a-tetrahydro-2H,10H-2,4a,10-triazadibenzo[a,d]cycloheptene-5,11-dione]
remaining activity at 10 µM: 17%

CC(C)(C)CC(=O)N1CCN2C(=O)c3cc(-c4ccccc4)ccc3NC(=O)C2C1 (centres unmarked) [Compound A131, 2-(3,3-Dimethylbutyryl)-7-phenyl-1,3,4,11a-tetrahydro-2H,10H-2,4a,10-triaza-dibenzo[a,d]cycloheptene-5,11-dione]
remaining activity at 10 µM: 14%
IC50: > 1 µM

CC(C)(C)CC(=O)N1CCN2C(=O)c3cc(-c4ccc(Cl)cc4)ccc3N(CCO)C(=O)C2C1 (centres unmarked) [Compound A165]
remaining activity at 10 µM: -20%
IC50: 0.1 to 1 µM

Cc1cccc(C(O)C(=O)N2CCN3C(=O)c4cc(-c5ccc(Cl)cc5)ccc4NC(=O)C3C2)c1 (centres unmarked) [Compound A44, 7-(4-Chlorophenyl)-2-(2-hydroxy-2-m-tolylacetyl)-1,3,4,11a-tetrahydro-2H,10H-2,4a,10-triaza-dibenzo[a,d]cycloheptene-5,11-dione]
remaining activity at 10 µM: 48%
IC50: > 1 µM

CC(C)(C)[C@H](O)C(=O)N1CCN2C(=O)c3cc(-c4ccc(Cl)cc4F)ccc3NC(=O)[C@H]2C1 [Compound A96, (R)-7-(4-Chloro-2-fluorophenyl)-2-((S)-2-hydroxy-3,3-dimethylbutyryl)-1,3,4,11a-tetrahydro-2H,10H-2,4a,10-triazadibenzo[a,d]cycloheptene-5,11-dione]
remaining activity at 10 µM: 1%
IC50: 0.1 to 1 µM

O=C1Nc2ccc(-c3ccccc3)cc2C(=O)N2CCN(C(=O)[C@@H]3CSCN3)C[C@H]12 [Compound B18]
remaining activity at 10 µM: 56%

O=C(O)CCCC(=O)N1CCN2C(=O)c3cc(-c4ccco4)ccc3NC(=O)[C@H]2C1 [Compound B7]
remaining activity at 10 µM: 70%

CC(C)(C)[C@H](O)C(=O)N1CCN2C(=O)c3cc(-c4ccc(Cl)cc4)ccc3NC(=O)C2C1 (stereo partly drawn) [Compound A34, 7-(4-Chlorophenyl)-2-((S)-2-hydroxy-3,3-dimethylbutyryl)-1,3,4,11a-tetrahydro-2H,10H-2,4a,10-triazadibenzo[a,d]cycloheptene-5,11-dione]
IC50: 0.1 to 1 µM

O=C1Nc2ccc(-c3ccc(Cl)cc3)cc2C(=O)N2CCN(C(=O)C3CCNCC3)C[C@H]12 [Compound B5]
remaining activity at 10 µM: 64%

O=C1Nc2ccc(-c3ccc(Cl)cc3)cc2C(=O)N2CCN(C(=O)C3(c4ccccc4)CCCC3)CC12 (centres unmarked) [Compound A106, 7-(4-Chlorophenyl)-2-(1-phenylcyclopentane-carbonyl)-1,3,4,11a-tetrahydro-2H,10H-2,4a,10-triazadibenzo[a,d]cycloheptene-5,11-dione]
remaining activity at 10 µM: -37%
IC50: 0.1 to 1 µM

CC(C)(C)CC(=O)N1CCN2C(=O)c3cc(-c4ccccc4F)ccc3NC(=O)C2C1 (centres unmarked) [Compound A13, 2-(3,3-Dimethylbutyryl)-7-(2-fluorophenyl)-1,3,4,11a-tetrahydro-2H,10H-2,4a,10-triaza-dibenzo[a,d]cycloheptene-5,11-dione]
IC50: > 1 µM

CC(C)CS(=O)(=O)N1CCN2C(=O)c3cc(-c4ccc(Cl)cc4F)ccc3NC(=O)[C@H]2C1 [Compound A173]
remaining activity at 10 µM: 1%
IC50: 0.1 to 1 µM

O=C1Nc2ccc(-c3ccc(Cl)cc3)cc2C(=O)N2CCN(C(=O)c3c(C(F)(F)F)nc4ccccn34)CC12 (centres unmarked) [Compound A72, 7-(4-Chlorophenyl)-2-(2-trifluoromethylimidazo[1,2-a]pyridine-3-carbonyl)-1,3,4,11a-tetrahydro-2H,10H-2,4a,10-triazadibenzo[a,d]cycloheptene-5,11-dione]
remaining activity at 10 µM: 70%
IC50: > 1 µM

O=C1Nc2ccc(-c3ccccc3F)cc2C(=O)N2CCN(C(=O)[C@@H]3CSCN3)C[C@@H]12 [Compound A16, (S)-7-(2-Fluorophenyl)-2-((R)-thiazolidine-4-carbonyl)-1,3,4,11a-tetrahydro-2H,10H-2,4a,10-triazadibenzo[a,d]cycloheptene-5,11-dione]
remaining activity at 10 µM: 18%
IC50: > 1 µM

CC1(C)SCNC1C(=O)N1CCN2C(=O)c3cc(-c4ccc(Cl)cc4)ccc3NC(=O)C2C1 (centres unmarked) [Compound A141, 7-(4-Chlorophenyl)-2-(5,5-dimethylthiazolidine-4-carbonyl)-1,3,4,11a-tetrahydro-2H,10H-2,4a,10-triazadibenzo[a,d]cycloheptene-5,11-dione]
remaining activity at 10 µM: -21%
IC50: 0.1 to 1 µM

O=C1Nc2ccc(-c3ccc(Cl)cc3)cc2C(=O)N2CCN(C(=O)C(O)c3ccccc3Cl)CC12 (centres unmarked) [Compound A40, 7-(4-Chlorophenyl)-2-[2-(2-chlorophenyl)-2-hydroxyacetyl]-1,3,4,11a-tetrahydro-2H,10H-2,4a,10-triazadibenzo[a,d]cycloheptene-5,11-dione]
remaining activity at 10 µM: 48%
IC50: > 1 µM

CC(C)(C)CC(=O)N1CCN2C(=O)c3cc(-c4ccc(Cl)cc4F)ccc3N(CCN3CCOCC3)C(=O)[C@@H]2C1 [Compound A161]
remaining activity at 10 µM: 3%
IC50: 0.1 to 1 µM

O=C1Nc2ccc(-c3ccc(Cl)cc3)cc2C(=O)N2CCN(C(=O)OCc3ccccc3)CC12 (centres unmarked) [Compound 40, Benzyl 7-(4-chlorophenyl)-5,11-dioxo-3,4,5,10,11,11a-hexahydro-1H-2,4a,10-triazadibenzo[a,d]cycloheptene-2-carboxylate]
remaining activity at 10 µM: 22%
IC50: > 1 µM

O=C1Nc2ccc(-c3ccc4c(c3)OCO4)cc2C(=O)N2CCN(C(=O)c3cccnc3)C[C@H]12 [Compound B12]
remaining activity at 10 µM: 84%

CC(C)(C)CC(=O)N1CCN2C(=O)c3cc(-c4cc(Cl)ccc4F)ccc3NC(=O)C2C1 (centres unmarked) [Compound A85, 7-(5-Chloro-2-fluorophenyl)-2-(3,3-dimethylbutyryl)-1,3,4,11a-tetrahydro-2H,10H-2,4a,10-triaza-dibenzo[a,d]cycloheptene-5,11-dione]
remaining activity at 10 µM: 13%
IC50: > 1 µM
